Reference: ChEMBL document CHEMBL2407074, “Three dimensional structure of a bacterial α-l-fucosidase with a 5-membered iminocyclitol inhibitor” (Bioorg Med Chem, 2013)
pKi: −log10 of the molar value.

Experiments:
[1] = Inhibition of bovine kidney fucosidase; design: species or system Bos taurus
[2] = Inhibition of Bacteroides thetaiotaomicron recombinant alpha-L-fucosidase using 2-chloro-4-nitrophenyl-alpha-L-fucopyranoside as substrate after 5 mins by Michaelis Menten equation analysis

pKi [1]: 7.10
pKi [2]: 5.70
SMILES: C[C@@H]1N[C@@H](c2nc3ccccc3[nH]2)[C@H](O)[C@@H]1O
